The subject of the assay is Exophiala dermatitidis CA01. Description: Broth microdilution chequerboard analysis of Lynovex (NM001) in combination with clinical antifungals. The note with it: for MIC: Exophiala dermatitidis, CA01, 72 h, antifungal in isolation, read-out: Antifungal MIC100; for MIC / Antifungal MIC100 in Combination: 72 h; for MIC / Antifungal MIC100 in Combination / Antifungal MIC50 in Combination: 35° C.; for FICI: antifungal with Lynovex (NM001), <0.5 Synergy, 0.5-1 Additive, >1 Indifference; for Antifungal MIC100 in Combination / Antifungal MIC50 in Combination: in combination with Lynovex (NM001). It counts as cell-based. The protocol: The aim of the experiment was to determine the effect of Lynovex (NM001) on the antifungal drug susceptibility of Exophiala dermatitidis CA01. Microtitre plates were prepared following CLSI recommendations for broth microdilution chequerboard method. These plates contained a serial doubling dilution of Lynovex (NM001) combined with serial doubling dilutions of antifungals drugs; Fluconazole, Itraconazole, Caspofungin and Amphotericin B. […] These were incubated at 35° C. and read at 72 h, 96 h, 120 h and 144 h on the BioTek plate reader. […] Three independent E. dermatitidis CA01 cultures were grown on PDA slope for 6 days at 35° C. • 7. Cultures were removed from incubator. 2 ml sterile 0.15M NaCl added to the overnight culture and cells harvested from the surface of the agar. Cells placed in fresh bijou tube. • 8. The cultures were allowed to rest for up to 10 minutes, allowing any hyphae to settle to the bottom. The top layer of conidia was removed into fresh bijou. Hyphae were discarded. • 9. […] This is continued to F12 where 100 μl is removed and discarded. • f. This dilution series was repeated in rows G-H for the remaining 2 cultures • g. Plate read at OD530 on BioTek • h. […] This preparation step occurs in two parts. First, Lynovex (NM001) and antifungals are serially diluted, down and across microtitre plates, respectively. Equal volumes of Lynovex and antifungal are then combined in a fresh microtitre plate, prior to inoculation. […] Stock solutions of Lynovex and antifungals were prepared at 4× desired concentrations. The plate layout at the end of this protocol is the final concentration in the plate following the combination of Lynovex and antifungals and the addition of the inocula. […] All other wells contain 150 μl sterile dH2O. • 9. Serial doubling dilutions are carried out from A to B whereby 150 μl is removed from A and placed into B and mixed well. Then take 150 μl B and place in C and mix well. This is repeated down to row G where the final 150 μl is discarded. […] The same procedure is repeated for the other 4 antifungals, carrying the dilutions across the plate i.e. […] At the final dilution in column 10, the final 150 μl is discarded. […] Inoculating Plates with E. dermatitidis CA01 • 6. Add 100 μl (total volume 200 μl) of the prepared E. dermatitidis CA01 culture to the all wells on the plate except wells H12. […] H12 will contain 100 μl water and 100 μl 2×RPMI-1640 alone, constituting an uninoculated control. • 8. The plate is read in the BioTek at OD530. • 9. Plates are then placed in a plastic box containing a Petri dish of water, sealed and incubated at 35° C. The presence of the water in the dish or on the tissue provides and environment of relatively high humidity. • 10. OD530 is then read at 72 h, 96 h, 120 h and 144 h and raw data processed using Microsoft Excel. • 11. Fractional Inhibitory Concentration (FIC) Index values are generated using MIC100 for 72 h data and MIC50 for later time points using the following formula: […]
Background: Broth dilution looks for growth in wells or tubes with falling amounts of substance.

Consider three compounds from patent US20160102052A1, “Use of Cysteamine in Treating Infections caused by Yeasts/Moulds” (priority 2014, published 2016).

Like-named read-outs stand apart in the source and are kept apart here.

Regarding `CC[C@H](C)C[C@H](C)CCCCCCCCC(=O)N[C@H]1C[C@@H](O)[C@@H](NCCN)NC(=O)[C@@H]2[C@@H](O)CCN2C(=O)[C@H]([C@H](O)CCN)NC(=O)[C@H]([C@H](O)[C@@H](O)c2ccc(O)cc2)NC(=O)[C@@H]2C[C@@H](O)CN2C(=O)[C@H]([C@@H](C)O)NC1=O` [Caspofungin], the MIC reads like this: (GEOMEAN) 25 µg/mL; (MEAN) 26 µg/mL; (Range) 15.6 to 31.2 µg/mL. For the same compound, the FICI by setting is: (GEOMEAN, MIC50, 96 h) 0.48 (4); (GEOMEAN, MIC50, 120 h) 0.24 (4); (GEOMEAN, MIC50, 144 h) 0.41 (3); (GEOMEAN, MIC100, 72 h) 0.25 (1); (MEAN, MIC50, 96 h) 0.58 (4); (MEAN, MIC50, 120 h) 0.27 (4). Besides, the FICI (MEAN, MIC50, 144 h) is listed as 0.52 (3) and the FICI (MEAN, MIC100, 72 h) is listed as 0.25 (1). In addition, the “Antifungal MIC100 in Combination” value amounted to 2.0 µg/mL (GEOMEAN), 2.0 µg/mL (MEAN) and 2.0 µg/mL (Range). The “Antifungal MIC50 in Combination” value by setting is: (GEOMEAN, 96 h) 11.84 µg/mL; (GEOMEAN, 120 h) 1.95 µg/mL; (GEOMEAN, 144 h) 3.91 µg/mL; (MEAN, 96 h) 14.84 µg/mL; (MEAN, 120 h) 4.20 µg/mL; (MEAN, 144 h) 6.51 µg/mL. Moreover, the “Antifungal MIC50 in Combination” value is, setting by setting: (Range, 96 h) 3.91 to 31.25 µg/mL; (Range, 120 h) 0.49 to 15.625 µg/mL; (Range, 144 h) 0.23 µg/mL.

As to `OC(Cn1cncn1)(Cn1cncn1)c1ccc(F)cc1F` [Fluconazole], the MIC runs as follows: (GEOMEAN) 250 µg/mL; (MEAN) 250 µg/mL; (Range) 250 µg/mL. The FICI reads like this: (GEOMEAN, MIC50, 96 h) 0.44 (6); (GEOMEAN, MIC50, 120 h) 0.41 (4); (GEOMEAN, MIC50, 144 h) 0.53 (4); (GEOMEAN, MIC100, 72 h) 0.42 (3); (MEAN, MIC50, 96 h) 0.45 (6); (MEAN, MIC50, 120 h) 0.42 (4). Moreover, the FICI is, setting by setting: (MEAN, MIC50, 144 h) 0.55 (4); (MEAN, MIC100, 72 h) 0.43 (3). In addition, the “Antifungal MIC100 in Combination” value (GEOMEAN) is 25 µg/mL, the “Antifungal MIC100 in Combination” value (MEAN) came out at 34 µg/mL and the “Antifungal MIC100 in Combination” value (Range) was in the range of 7.81 to 62.5 µg/mL. Besides, the “Antifungal MIC50 in Combination” value was 35 µg/mL (GEOMEAN, 96 h); 44 µg/mL (GEOMEAN, 120 h); 63 µg/mL (GEOMEAN, 144 h); 51 µg/mL (MEAN, 96 h); 59 µg/mL (MEAN, 120 h); 98 µg/mL (MEAN, 144 h). Further, the “Antifungal MIC50 in Combination” value runs as follows: (Range, 96 h) 7.81 to 125 µg/mL; (Range, 120 h) 15.63 to 125 µg/mL; (Range, 144 h) 15.63 to 250 µg/mL.

As to `CCC(C)n1ncn(-c2ccc(N3CCN(c4ccc(OCC5COC(Cn6cncn6)(c6ccc(Cl)cc6Cl)O5)cc4)CC3)cc2)c1=O` (stereo not drawn) [Itraconazole], the MIC by setting is: (GEOMEAN) 4.5 µg/mL; (MEAN) 4.7 µg/mL; (Range) 4 to 8 µg/mL. In addition, the FICI runs as follows: (GEOMEAN, MIC50, 96 h) 0.27 (7); (GEOMEAN, MIC50, 120 h) 0.18 (5); (GEOMEAN, MIC50, 144 h) 0.18 (3); (GEOMEAN, MIC100, 72 h) 0.18 (5); (MEAN, MIC50, 96 h) 0.32 (7); (MEAN, MIC50, 120 h) 0.20 (5). The FICI reads like this: (MEAN, MIC50, 144 h) 0.19 (3); (MEAN, MIC100, 72 h) 0.19 (5). Further, the “Antifungal MIC100 in Combination” value is 0.14 µg/mL (GEOMEAN), 0.24 µg/mL (MEAN) and 0.03 to 0.5 µg/mL (Range). Further, the “Antifungal MIC50 in Combination” value is 0.37 µg/mL (GEOMEAN, 96 h); 0.19 µg/mL (GEOMEAN, 120 h); 0.20 µg/mL (GEOMEAN, 144 h); 0.74 µg/mL (MEAN, 96 h); 0.33 µg/mL (MEAN, 120 h); 0.27 µg/mL (MEAN, 144 h). For the same compound, the “Antifungal MIC50 in Combination” value runs as follows: (Range, 96 h) 0.06 to 2 µg/mL; (Range, 120 h) 0.06 to 1 µg/mL; (Range, 144 h) 0.06 to 0.5 µg/mL.
